Test results published in ChEMBL document CHEMBL1201862, “PubChem BioAssay data set” (2004).
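All cell lines were grown in 96-well plates and treated with compound for 48 hours. At the GI50, growth is halved.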 Activity calls are given as the source filed them. Rule as the data show it: active = GI50 up to about 1.1 µM and inactive = higher.

Tests used:
Test in all cases: NCI tumour cell line growth inhibition, 48 h
RXF 393 = system: RXF 393
A549 = system: A549
UACC-257 = system: UACC-257
CAKI-1 = system: CAKI-1
A498 = system: A498
COLO 205 = system: COLO 205
NCI-H226 = system: NCI-H226
SK-MEL-2 = system: SK-MEL-2
K562 = system: K562
NCI-H23 = system: NCI-H23
RPMI-8226 = system: RPMI-8226
SR = system: SR
SK-MEL-5 = system: SK-MEL-5
OVCAR-8 = system: OVCAR-8
NCI-H460 = system: NCI-H460
MDA-MB-435 = system: MDA-MB-435
T47D = system: T47D
NCI/ADR-RES = system: NCI/ADR-RES
PC-3 = system: PC-3

| SMILES | GI50 (RXF 393) | GI50 (A549) | GI50 (UACC-257) | GI50 (CAKI-1) | GI50 (A498) | GI50 (COLO 205) | GI50 (NCI-H226) | GI50 (SK-MEL-2) | GI50 (K562) | GI50 (NCI-H23) | GI50 (RPMI-8226) | GI50 (SR) | GI50 (SK-MEL-5) | GI50 (OVCAR-8) | GI50 (NCI-H460) | GI50 (MDA-MB-435) | GI50 (T47D) | GI50 (NCI/ADR-RES) | GI50 (PC-3) |
| --- | --- | --- | --- | --- | --- | --- | --- | --- | --- | --- | --- | --- | --- | --- | --- | --- | --- | --- | --- |
| CNS(=O)(=O)NN(C)S(=O)(=O)c1ccccc1 | 0.472 µM (active) | > 100 µM (inactive) | > 100 µM (inactive) | > 100 µM (inactive) | > 100 µM (inactive) | > 100 µM (inactive) | > 100 µM (inactive) | > 100 µM (inactive) | > 100 µM (inactive) | > 100 µM (inactive) | > 100 µM (inactive) | > 100 µM (inactive) | > 100 µM (inactive) | > 100 µM (inactive) | 85.9 µM (inactive) |  |  |  |  |
| CC(Oc1ccc2c(-c3ccc(Cl)cc3)cc(=O)oc2c1)C(=O)O (centres undefined) | > 100 µM (inactive) | > 100 µM (inactive) | > 100 µM (inactive) | > 100 µM (inactive) | > 100 µM (inactive) | > 100 µM (inactive) | > 100 µM (inactive) |  | > 100 µM (inactive) | > 100 µM (inactive) |  | > 100 µM (inactive) | > 100 µM (inactive) | > 100 µM (inactive) | > 100 µM (inactive) |  |  |  |  |
| COC(=O)C12CC(C3CC31)C1CC12 (centres undefined) |  | > 100 µM (inactive) | > 100 µM (inactive) | > 100 µM (inactive) | > 100 µM (inactive) | > 100 µM (inactive) | > 100 µM (inactive) |  | > 100 µM (inactive) | > 100 µM (inactive) | > 100 µM (inactive) | > 100 µM (inactive) | > 100 µM (inactive) | > 100 µM (inactive) | > 100 µM (inactive) |  |  |  |  |
| O=c1/c(=C/c2ccccc2[N+](=O)[O-])sc2nnc(-c3cccnc3)n12 | > 100 µM (inactive) | > 100 µM (inactive) | > 100 µM (inactive) | 1.43 µM (inactive) | > 100 µM (inactive) |  | > 100 µM (inactive) | > 100 µM (inactive) | 74.1 µM (inactive) | > 100 µM (inactive) | > 100 µM (inactive) | 76.7 µM (inactive) | > 100 µM (inactive) | > 100 µM (inactive) | > 100 µM (inactive) |  |  |  |  |
| O=c1n(-c2ccccc2)c(=O)n2n1C1C=CC2C2C(C1)C2(Cl)Cl (centres undefined) | > 100 µM (inactive) | > 100 µM (inactive) | > 100 µM (inactive) | > 100 µM (inactive) | > 100 µM (inactive) | > 100 µM (inactive) | > 100 µM (inactive) | > 100 µM (inactive) | > 100 µM (inactive) |  |  | > 100 µM (inactive) | > 100 µM (inactive) | > 100 µM (inactive) | > 100 µM (inactive) |  |  |  |  |
| [O-][n+]1c(-c2ccccc2)oc2ccccc21 | 21.2 µM (inactive) | 4.6 µM (inactive) | 7.71 µM (inactive) | > 41.1 µM (inactive) | 17.9 µM (inactive) | 18.6 µM (inactive) | 30.8 µM (inactive) | 17.7 µM (inactive) | 11.9 µM (inactive) | 11.3 µM (inactive) | > 22.6 µM (inactive) | > 100 µM (inactive) | 2.25 µM (inactive) | 15.9 µM (inactive) | 4.98 µM (inactive) |  |  |  |  |
| Cc1cnc(Cl)nc1C(C#N)c1nc2ccccc2n1C (centres undefined) | 58.9 µM (inactive) | 62.5 µM (inactive) | > 100 µM (inactive) | 95.3 µM (inactive) | > 100 µM (inactive) | > 100 µM (inactive) | > 100 µM (inactive) |  |  | 66.7 µM (inactive) | 85.9 µM (inactive) |  | > 100 µM (inactive) | 38.6 µM (inactive) | 46.1 µM (inactive) | > 100 µM (inactive) | 84.9 µM (inactive) | 56.1 µM (inactive) |  |
| CCN(CC)CCNc1ccc2ncn3c4cc(O)ccc4c(=O)c1c23 | 0.536 µM (active) | 3.31 µM (inactive) | 5.37 µM (inactive) | 3.05 µM (inactive) | 4.86 µM (inactive) | 2.41 µM (inactive) | 2.82 µM (inactive) | 8.59 µM (inactive) | 2.11 µM (inactive) | 3.55 µM (inactive) | 2.17 µM (inactive) | 2.26 µM (inactive) | 3.66 µM (inactive) | 1.15 µM (inactive) | 3.04 µM (inactive) |  |  |  |  |
| c1cnc2c(c1)-n1cccc1C1(CCOCC1)NN2 | > 100 µM (inactive) | > 100 µM (inactive) |  | > 100 µM (inactive) | > 100 µM (inactive) | > 100 µM (inactive) | > 100 µM (inactive) | > 100 µM (inactive) | > 100 µM (inactive) | > 100 µM (inactive) | > 100 µM (inactive) | > 100 µM (inactive) | > 100 µM (inactive) | > 100 µM (inactive) | > 100 µM (inactive) |  |  |  |  |
| Fc1ccc2c(c1)cc1ccc3cccc4ccc2c1c34 | > 100 µM (inactive) | > 100 µM (inactive) | > 100 µM (inactive) | > 100 µM (inactive) | > 100 µM (inactive) | > 100 µM (inactive) | > 100 µM (inactive) | > 100 µM (inactive) | > 100 µM (inactive) | > 100 µM (inactive) |  | > 100 µM (inactive) | > 100 µM (inactive) | > 100 µM (inactive) |  |  |  |  |  |
| O=C(CC1C(=O)Nc2ccccc2S1(=O)=O)Nc1cc(Cl)ccc1Cl (centres undefined) | 15.8 µM (inactive) | 16.7 µM (inactive) | 35.2 µM (inactive) | 16.1 µM (inactive) | 15.8 µM (inactive) |  | 14.8 µM (inactive) | 14.9 µM (inactive) | 13.9 µM (inactive) | 17.9 µM (inactive) | 2.87 µM (inactive) | 7.16 µM (inactive) | 13.5 µM (inactive) | 17.5 µM (inactive) | 13.6 µM (inactive) |  |  |  |  |
| C=C1C(=O)C23C(CC(OC(C)=O)C1[C@@H]2OC(C)=O)C1(C)C(OC(C)=O)CCC(C)(C)C1C[C@@H]3OC(C)=O (some centres undefined) | 0.237 µM (active) | 1.68 µM (inactive) | 1.74 µM (inactive) | 0.653 µM (active) | 1.95 µM (inactive) |  | 1.69 µM (inactive) | 1.93 µM (inactive) | 0.755 µM (active) |  | 1.48 µM (inactive) | 1.57 µM (inactive) | 1.84 µM (inactive) | 0.418 µM (active) | 1.61 µM (inactive) |  |  |  |  |
| Nn1c(CCCCCCCCc2nnc(COc3ccc4ccccc4c3O)n2N)nnc1COc1ccc2ccccc2c1O | 26.1 µM (inactive) | 25.1 µM (inactive) | 39.9 µM (inactive) | 18.2 µM (inactive) | 35.8 µM (inactive) | 19.5 µM (inactive) | 17.9 µM (inactive) | 32.1 µM (inactive) | 41.7 µM (inactive) | 16 µM (inactive) | 22.3 µM (inactive) |  | 20.1 µM (inactive) |  | 29 µM (inactive) | 29.9 µM (inactive) |  | 17.5 µM (inactive) | 26.7 µM (inactive) |
| CSC[S+]([O-])C[C@H](CO)NC(=O)/C=C/c1c(C)[nH]c(=O)[nH]c1=O (some centres undefined) | 0.804 µM (active) | 1.15 µM (inactive) | 1.38 µM (inactive) | 1.65 µM (inactive) | 0.378 µM (active) | 1.43 µM (inactive) | 0.67 µM (active) | 1.08 µM (active) | 1.32 µM (inactive) | 0.644 µM (active) | 1.79 µM (inactive) | 2.04 µM (inactive) | 2.44 µM (inactive) | 1.43 µM (inactive) | 0.48 µM (active) |  |  | 1.27 µM (inactive) |  |
